Data set [1] relates to Salmonella typhimurium. Kind of data set: Toxic mutagenic effect in Salmonella Typhimurium TA100 assessed as increase in reverse mutants at 0.63 mg/plate segment in presence of liver S9 fraction and NADPH by reverse mutation assay relative to untreated control. The following applies: salmonella enterica subsp. enterica serovar typhimurium. The data set is classed as toxicity, organism-based.

The test system of data set [2] is Salmonella typhimurium. In words: Toxic mutagenic effect in Salmonella Typhimurium TA1537 assessed as increase in reverse mutants at 0.63 mg/plate segment in presence of liver S9 fraction and NADPH by reverse mutation assay relative to untreated control. The data set is classed as toxicity, organism-based. The following applies: salmonella enterica subsp. enterica serovar typhimurium.

Data set [3] in a line: Metabolic stability in aroclor 1254-induced rat liver S9 fraction at 1 uM in presence of NADPH. The format is ADME, subcellular.
A short description of data set [4]: Metabolic stability in human liver microsomes. The data set is classed as ADME, Microsome. For orientation: Liver microsomes are vesicles of endoplasmic reticulum, rich in cytochrome P450 enzymes.
Data set [5] in a line: Metabolic stability in human liver microsomes in presence of CYP3A4 inhibitor ketoconazole. The data set is classed as ADME, Microsome. The following applies: with ketoconazole (CYP3A4 inhibitor), concentration not stated.
Data set [6] can be described thus: Metabolic stability in human liver microsomes in presence of CYP1A2 inhibitor furafylline. The format is ADME, Microsome. Conditions: with furafylline (CYP1A2 inhibitor), concentration not stated.
For the next data set, the target named is Cytochrome P450 3A4 (Homo sapiens, UniProt P08684). In words: Inhibition of CYP3A4 in human liver microsomes. The data set is classed as ADME, Microsome.
Chain of Cytochrome P450 3A4 (P08684 whole entry): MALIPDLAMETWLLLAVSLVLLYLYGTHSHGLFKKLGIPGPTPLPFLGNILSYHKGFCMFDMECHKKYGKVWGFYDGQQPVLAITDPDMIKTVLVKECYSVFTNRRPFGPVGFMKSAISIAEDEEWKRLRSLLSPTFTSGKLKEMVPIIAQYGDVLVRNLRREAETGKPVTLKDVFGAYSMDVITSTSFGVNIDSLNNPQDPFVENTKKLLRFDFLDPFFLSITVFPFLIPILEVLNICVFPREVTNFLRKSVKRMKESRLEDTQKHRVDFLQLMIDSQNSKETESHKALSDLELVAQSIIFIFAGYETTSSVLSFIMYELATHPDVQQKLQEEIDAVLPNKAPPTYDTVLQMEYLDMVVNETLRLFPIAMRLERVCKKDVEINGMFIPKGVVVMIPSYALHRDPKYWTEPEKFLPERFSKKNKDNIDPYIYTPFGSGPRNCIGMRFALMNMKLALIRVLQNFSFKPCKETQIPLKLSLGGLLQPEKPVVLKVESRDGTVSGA
For data set [7], the system named is Salmonella typhimurium. Kind of data set: Toxic mutagenic effect in Salmonella Typhimurium TA1535 assessed as increase in reverse mutants at 5 mg/plate segment after 72 hrs at 37 degC by reverse mutation assay relative to untreated control. The following applies: salmonella enterica subsp. enterica serovar typhimurium. The format is toxicity, organism-based.

Data set [8] concerns Salmonella typhimurium. Kind of data set: Toxic mutagenic effect in Salmonella Typhimurium TA100 assessed as increase in reverse mutants at 5 mg/plate segment after 72 hrs at 37 degC by reverse mutation assay relative to untreated control. The data set is classed as toxicity, organism-based. Conditions: salmonella enterica subsp. enterica serovar typhimurium.
In data set [9] the test system is Salmonella typhimurium. In words: Toxic mutagenic effect in Salmonella Typhimurium TA98 assessed as increase in reverse mutants at 5 mg/plate segment after 72 hrs at 37 degC by reverse mutation assay relative to untreated control. The data set is classed as toxicity, organism-based. Conditions: salmonella enterica subsp. enterica serovar typhimurium.
Data set [10] concerns Salmonella typhimurium. In words: Toxic mutagenic effect in Salmonella Typhimurium TA1537 assessed as increase in reverse mutants at 5 mg/plate segment after 72 hrs at 37 degC by reverse mutation assay relative to untreated control. The format is toxicity, organism-based. The following applies: salmonella enterica subsp. enterica serovar typhimurium.
Data set [11] concerns Salmonella typhimurium. In words: Toxic mutagenic effect in Salmonella Typhimurium TA1535 assessed as increase in reverse mutants at 5 mg/plate segment after 72 hrs at 37 degC in presence of aroclor 1254-induced rat liver S9 fraction by reverse mutation assay relative to untreated control. The data set is classed as toxicity, organism-based. The following applies: salmonella enterica subsp. enterica serovar typhimurium, s9, 72 h.

The test system of data set [12] is Salmonella typhimurium. Kind of data set: Toxic mutagenic effect in Salmonella Typhimurium TA98 assessed as increase in reverse mutants at 5 mg/plate segment after 72 hrs at 37 degC in presence of aroclor 1254-induced rat liver S9 fraction by reverse mutation assay relative to untreated control. The format is toxicity, organism-based. The following applies: salmonella enterica subsp. enterica serovar typhimurium, s9, 72 h.

Data set [13] concerns Salmonella typhimurium. Kind of data set: Toxic mutagenic effect in Salmonella Typhimurium TA1537 assessed as increase in reverse mutants at 5 mg/plate segment after 72 hrs at 37 degC in presence of aroclor 1254-induced rat liver S9 fraction by reverse mutation assay relative to untreated control. The format is toxicity, organism-based. Conditions: salmonella enterica subsp. enterica serovar typhimurium, s9, 72 h.

A further data set deals with T1, Cytochrome P450 1A2 (Homo sapiens, UniProt P05177).
T1 sequence (P05177 whole entry): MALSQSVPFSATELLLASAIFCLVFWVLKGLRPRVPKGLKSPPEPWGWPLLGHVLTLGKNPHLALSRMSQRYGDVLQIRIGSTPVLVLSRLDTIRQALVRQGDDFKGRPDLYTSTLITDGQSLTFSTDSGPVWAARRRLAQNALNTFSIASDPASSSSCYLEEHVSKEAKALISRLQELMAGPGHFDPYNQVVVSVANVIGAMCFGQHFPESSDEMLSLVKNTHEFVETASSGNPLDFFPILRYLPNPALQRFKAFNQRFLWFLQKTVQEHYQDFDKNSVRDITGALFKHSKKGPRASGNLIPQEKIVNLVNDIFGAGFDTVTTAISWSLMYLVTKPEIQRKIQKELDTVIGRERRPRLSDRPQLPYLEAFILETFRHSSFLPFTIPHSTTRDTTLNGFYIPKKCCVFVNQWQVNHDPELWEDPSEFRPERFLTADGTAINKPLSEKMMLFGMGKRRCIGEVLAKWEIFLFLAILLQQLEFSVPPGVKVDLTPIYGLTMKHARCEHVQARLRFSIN
In words: Inhibition of CYP1A2 in human liver microsomes. The data set is classed as ADME, Microsome.

Results on two compounds are retold here after ChEMBL document CHEMBL1153330, “Biochemical basis for differences in metabolism-dependent genotoxicity by two diazinylpiperazine-based 5-HT2C receptor agonists” (Bioorg Med Chem Lett, 2009).

Structures are written as SMILES.

One may read the half-life as the time in which the quantity being followed falls by half. In general, IC50 refers to the concentration that gives 50% inhibition. A high value points to a need for much substance. Turning to `Clc1cccc(COc2cncc(N3CCNCC3)n2)c1`, the “fold change (FC)” value in the data set on Salmonella typhimurium [1] and with Salmonella typhimurium [2] was 3 in each case. Besides, the half-life at 1 µM in [3] was determined as 4 min. In addition, the values for the half-life in data set [4], in [5] and in data set [6] were 8 min, above 90 min and 40 min, respectively. The IC50 against Cytochrome P450 3A4 was above 50 µM.

As for `C[C@H](Cc1cccc(F)c1)Oc1nc(N2CCNC[C@H]2C)ncc1F`, the Activity result in the data set with Salmonella typhimurium [7], in the data set with Salmonella typhimurium [9], with Salmonella typhimurium [10], in the data set with Salmonella typhimurium [11], in the data set on Salmonella typhimurium [12] and with Salmonella typhimurium [13] was “Non-toxic” in each case. The “fold change (FC)” value in the data set with Salmonella typhimurium [8] is 1.34. The half-life at 1 µM in [3] was determined as 13 min. The half-life in [4] was 20 min; in [5], above 90 min; in [6] it was 40 min. Further, the IC50 against Cytochrome P450 1A2 was found to be 0.4 µM; at Cytochrome P450 3A4, 4.9 µM.
